Assay results reported in US12338203B2 (TAISHO PHARMACEUTICAL CO., LTD., priority 2019, dated 2025).

Target: T1, human LPAR1 (Homo sapiens, UniProt Q92633)
T1 construct: expressed in transfected cells
Assay: Test Example 1: antagonism against response of LPA-induced increase in intracellular Ca2+ concentration in RH7777 cells stably expressing human LPAR1
Type: cell-based
Conditions: RH7777 cells stably expressing human LPAR1; Fluo-4 fluorescence, FDSS6000; read-out: IC50 value (concentration producing 50% antagonism against response of LPA-induced increase in intracellular Ca2+ concentration) (converted)
Method: (1) Preparation of RH7777 cells stably expressing human LPAR1
The human LPAR1 expression vector was transfected into RH7777 cells to acquire human LPAR1 expressing cells.
(2) Test of antagonism against response of LPA-induced increase in intracellular Ca^2+ concentration
Cells stably expressing human LPAR1 were used for a test of antagonism against response of LPA-induced increase in intracellular Ca^2+ concentration.
The cells were seeded onto the Poly-D-Lysine 96 well black plate and incubated overnight. […] 50 μL of the Basal Buffer (1×HBSS, 20 mM HEPES, 2.5 mM Probenecid, 0.05% BSA, 0.25 mg/mL Amaranth, pH 7.4) containing the test compound was added thereto, followed by incubation at 37° C. for 30 minutes. In FDSS6000 (Hamamatsu Photonics K.K.), LPAs were added, and the change in intracellular Ca^2+ concentration was detected using the fluorescence value of a wavelength of 540 nm by an excitation wavelength of 480 nm as an indicator. […] The Rmax under […] without the test compound was used as the control value. The Rmax under Basal Buffer stimulation with no LPAs or test compounds was used as the basal value.
The percentage (%) of increase in intracellular Ca^2+ concentration was calculated by dividing the value obtained by subtracting the basal value from Rmax in the presence of LPAs and each concentration of the test compound by the value obtained by subtracting the basal value from the control value. The concentration of each test compound was plotted on the X axis and the percentage (%) of increase in intracellular Ca^2+ concentration was plotted on the Y axis, and the IC50 value was calculated by nonlinear regression using XLfit.

T1 sequence (Q92633 whole entry): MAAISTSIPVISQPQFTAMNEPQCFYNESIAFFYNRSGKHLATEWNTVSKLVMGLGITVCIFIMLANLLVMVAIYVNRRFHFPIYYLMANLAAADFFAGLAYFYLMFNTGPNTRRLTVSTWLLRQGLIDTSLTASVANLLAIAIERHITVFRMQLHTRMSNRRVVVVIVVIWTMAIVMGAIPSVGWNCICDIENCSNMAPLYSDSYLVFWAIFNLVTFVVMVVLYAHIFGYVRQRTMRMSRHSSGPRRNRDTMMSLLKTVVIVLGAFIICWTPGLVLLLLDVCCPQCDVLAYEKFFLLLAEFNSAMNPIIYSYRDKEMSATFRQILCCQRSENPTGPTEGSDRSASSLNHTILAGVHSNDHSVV

SMILES	IC50
CCOc1cc(C(C)N(CCCCc2ccccc2)C(=O)NC2(C(=O)O)CC(F)(F)C2)cc(OCC)c1C(=O)CC (stereo not shown) [Example 1-58]	4.24 nM
CCOc1cc([C@@H](C)N(CCO[C@@H](C)c2ccccc2)C(=O)NC2(C(=O)O)CC2)cc(OCC)c1C1CC1 [Example 4-112]	1.49 nM
CCOc1cc([C@@H](C)N(CCO[C@@H](C)c2ccccc2)C(=O)N[C@]2(C(=O)O)C[C@@H](OCC)C2)cc(OCC)c1C1(O)CC1 [Example 4-137]	21.9 nM
CCOc1cc([C@@H](C)N(CCCC(F)(F)c2ccccc2)C(=O)NC2(C(=O)O)CCOCC2)cc(OCC)c1C1(O)CC1 [Example 4-74]	50.5 nM
CCOc1cc([C@@H](C)N(CCO[C@@H](C)c2ccccc2)C(=O)NC2(C(=O)O)CC(OC)C2)cc(OCC)c1C(C)O (stereo partly shown) [Example 4-125]	7.11 nM
CCOc1cc([C@@H](C)N(CCC2Cc3ccccc3C2)C(=O)NC2(C(=O)O)CC(OC)C2)cc(OCC)c1C(C)=O (stereo partly shown) [Example 4-23]	7.17 nM
CCOc1cc([C@@H](C)N(CCCC(F)(F)c2ccccc2)C(=O)NC2(C(=O)O)CCC2)cc(OCC)c1C(C)O (stereo partly shown) [Example 4-53]	1.72 nM
CCOc1cc([C@@H](C)N(CCCCc2ccccc2)C(=O)N[C@H]2COC[C@H]2C(=O)O)cc(OCC)c1C(C)=O [Example 1-162]	3.92 nM
CCOc1cc([C@@H](C)N(CCCCc2cccc(C)c2)C(=O)NC2(C(=O)O)CC(F)(F)C2)cc(OCC)c1C [Example 4-16]	4.05 nM
CCOc1cc([C@@H](C)N(CCCCc2ccccc2)C(=O)N[C@H]2COC[C@H]2C(=O)O)cc(OCC)c1C(C)=O [Example 1-161]	9.64 nM
CCOc1cc([C@@H](C)N(CCCC(F)(F)c2ccccc2)C(=O)NC2(C(=O)O)CCC2)cc(OCC)c1C(C)=O [Example 4-50]	1.21 nM
CCOc1cc([C@@H](C)N(CC(=O)NCc2ccccc2)C(=O)NC2(C(=O)O)CC(F)(F)C2)cc(OCC)c1C [Example 4-163]	384 nM
CCOc1cc([C@@H](C)N(CCCCc2ccccc2)C(=O)NC2(C(=O)O)CCC2)cc(OCC)c1C(C)O (single isomer, unassigned) [Example 1-21]	3.38 nM
CCOc1c(C(C)=O)ccc([C@@H](C)N(CCO[C@@H](C)c2ccccc2)C(=O)NC2(C(=O)O)CC(F)(F)C2)c1C [Example 4-119]	3.13 nM
C=Cc1c(OCC)cc(C(C)N(CCCCc2ccccc2)C(=O)NC2(C(=O)O)CC(F)(F)C2)cc1OCC (stereo not shown) [Example 1-53]	3 nM
CCOc1c(C(C)=O)ccc([C@@H](C)N(CCCCc2ccccc2)C(=O)NC2(C(=O)O)CC(OCC)C2)c1C (stereo partly shown) [Example 1-102]	2.03 nM
CCOc1c(C2CC2)ccc([C@@H](C)N(CCO[C@H](C)c2cccc(Cl)c2)C(=O)NC2(C(=O)O)CCC2)c1C [Example 4-180]	6.22 nM
CCOc1cc([C@@H](C)N(CCCC(C)c2ccccc2)C(=O)NC2(C(=O)O)CC(F)(F)C2)cc(OCC)c1C (stereo partly drawn) [Example 4-40, 1-({[(1R)-1-(3,5-Diethoxy-4-Methylphenyl)Ethyl](4-Phenylpentyl) Carbamoyl}Amino)-3,3-Difluorocyclobutane-1-Carboxylic Acid]	3.15 nM
CCOc1c(C(C)=O)ccc([C@@H](C)N(CCO[C@@H](C)c2ccccc2)C(=O)N[C@]2(C(=O)O)C[C@@H](OCC)C2)c1C [Example 4-140]	5.67 nM
CCOc1cc([C@@H](C)N(CCCCc2ccccc2)C(=O)NC2(C(=O)O)CCOC2)cc(OCC)c1C (stereo partly shown) [Example 1-150]	8 nM
CCCCC(NC(=O)N(CCCCc1ccccc1)[C@H](C)c1cc(OCC)c(C)c(OCC)c1)C(=O)O (stereo partly shown) [Example 1-4]	25.5 nM
CC(c1cc(Cl)cc(Cl)c1F)N(CCCCc1ccccc1)C(=O)NC1(C(=O)O)CC(F)(F)C1 (stereo not shown) [Example 1-80]	13.1 nM
CCOc1cc([C@@H](C)N(CCCCc2ccccc2)C(=O)NC2(C(=O)O)CC(OCC)C2)cc(OCC)c1C(C)=O (stereo partly shown) [Example 1-97]	3.94 nM
CCOc1cc([C@@H](C)N(CCCc2ccncc2)C(=O)NC2(C(=O)O)CC(F)(F)C2)cc(COC)c1C [Example 4-30]	178 nM
CCOc1cc([C@@H](C)N(CCCC(F)(F)c2ccccc2)C(=O)NC2(C(=O)O)CCOCC2)cc(OCC)c1C(C)=O [Example 4-73]	3.68 nM
CCOc1c(C(C)=O)ccc([C@@H](C)N(CCCC(F)(F)c2ccccc2)C(=O)NC2(C(=O)O)CCOCC2)c1C [Example 4-78]	8.44 nM
CCOc1c(C(C)=O)ccc([C@@H](C)N(CCCCc2ccccc2)C(=O)NC2(C(=O)O)CC(OCC)C2)c1C (stereo partly shown) [Example 1-103]	4.57 nM

Further lines, results first:

IC50	SMILES
711 nM	CC(c1ccc2c(c1)OCCO2)N(CCCCc1ccccc1)C(=O)NC1(C(=O)O)CC(F)(F)C1 (stereo not shown) [Example 5-91]
3.62 nM	COc1cc(C(C)N(CCOCc2ccccc2)C(=O)NC2(C(=O)O)CC(F)(F)C2)c(C)c(OC)c1C (stereo not shown) [Example 5-147]
43.5 nM	CCOc1cc([C@@H](C)N(CCC(F)(F)Cc2ccccc2)C(=O)N[C@]2(C(=O)O)C[C@@H](OCC)C2)c(C)c(OCC)c1C [Example 5-80]
1.1 nM	COc1cc(C(C)N(CCOCc2ccccc2)C(=O)NC2(C(=O)O)CC(OC)C2)c(C)c(OC)c1C1CC1 (stereo not shown) [Example 5-155]
164 nM	CC(c1ccc(F)cc1)N(CCCCc1ccccc1)C(=O)NC1(C(=O)O)CC(F)(F)C1 (stereo not shown) [Example 5-6]
1.46 nM	CCOc1cc([C@@H](C)N(CCO[C@@H](C)c2ccccc2)C(=O)N[C@]2(C(=O)O)C[C@@H](OCC)C2)c(Cl)c(OCC)c1C(C)=O [Example 5-26, Trans-1-[([(1R)-1-(4-Acetyl-2-Chloro-3,5-Diethoxyphenyl)Ethyl]{2-[(1S)-1-Phenylethoxy]Ethyl}Carbamoyl)Amino]-3-Ethoxycyclobutane-1-Carboxylic Acid]
1.9 nM	CCOc1cc(C(C)N(CCCCc2ccccc2)C(=O)NC2(c3nn[nH]n3)CC2)cc(OCC)c1C(C)=O (stereo not shown) [Example 10-3]
3.97 nM	CCOc1cc([C@@H](C)N(CCO[C@H](C)c2ccccc2)C(=O)N[C@]2(C(=O)O)C[C@@H](OC)C2)c(Cl)c(OCC)c1C(C)=O [Example 5-35]
195 nM	COc1cc(OC)nc(C(C)N(CCCCc2ccccc2)C(=O)NC2(C(=O)O)CC(F)(F)C2)n1 (stereo not shown) [Example 5-87]
2.82 nM	CCOc1cc(C(C)N(CCCCc2ccccc2)C(=O)NC2(C(=O)O)CC(F)(F)C2)ccc1C(C)O (stereo not shown) [Example 5-9]
1.62 nM	CCOc1cc(C(C)N(CCO[C@@H](C)c2ccccc2)C(=O)NC2(C(=O)O)CC(OC)C2)c(Cl)c(OCC)c1C1CC1 (stereo partly shown) [Example 5-202]
43.2 nM	CCOc1cc(C(=O)NC)cc(C(C)N(CCCCc2ccccc2)C(=O)NC2(C(=O)O)CC(F)(F)C2)c1 (stereo not shown) [Example 5-25]
6.1 nM	CCCc1cc(OCC)cc(C(C)N(CCCCc2ccccc2)C(=O)NC2(C(=O)O)CC(F)(F)C2)c1 (stereo not shown) [Example 5-15]
4.32 nM	COc1cc(OC)cc(C(C)N(CCCCc2ccccc2)C(=O)NC2(C(=O)O)CC(F)(F)C2)c1 (stereo not shown) [Example 5-13]
2.97 nM	CCOc1cc([C@@H](C)N(CCCCc2ccccc2)C(=O)NC2(c3nnn[nH]3)CC(F)(F)C2)cc(OCC)c1C(C)=O [Example 10-7, N-[(1R)-1-(4-Acetyl-3,5-Diethoxyphenyl)Ethyl]-N′-[3,3-Difluoro-1-(1H-Tetrazol-5-Yl)Cyclobutyl]-N-(4-Phenylbutyl) Urea]
10.3 nM	CCO[C@H]1C[C@@](NC(=O)N(CCO[C@@H](C)c2ccccc2)C(C)c2cc(OC)c(C(C)=O)c(OC)c2Cl)(C(=O)O)C1 (stereo partly shown) [Example 5-128]
